Measured values: patent publication US9051310B2, “Nicotinamide derivative or salt thereof” (FUJIFILM Corporation, priority 2011, dated 2015)
pIC50: −log10 of the molar value.

Target: T1, glutathione S-transferase (GST)-linked full-length human Syk protein (Homo sapiens, UniProt P43405)
T1 construct: glutathione S-transferase (GST)-linked full-length human Syk protein; purchased Carna Biosciences; host or cells: Baculovirus expression system
Experiment: Syk enzyme assay
Format: biochemical
Conditions: 0.83 nM Syk, time-resolved fluorescence; read-out: IC50 of Syk-inhibitory activity
In short: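 Phosphotyrosine on a biotin-peptide substrate (0.5 μM) was read by time-resolved fluorescence at 615 and 665 nm with Eu-anti-pTyr antibody and APC-streptavidin after 1 h EDTA stop.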

pIC50, 7.30 to 8.00:
COc1ccc([C@@H](Nc2nc(Nc3ccc4c(c3)c(N(C)C)nn4C)c(C(N)=O)cc2F)[C@H](C)N)cc1 [Example 2-342, 6-(((1R,2S)-2-amino-1-(4-methoxyphenyl)propyl)amino)-2-((3-(dimethylamino)-1-methyl-1H-indazol-5-yl)amino)-5-fluoronicotinamide]
COc1cc(Nc2nc(N[C@H](CCSC)[C@H](C)N)c(F)cc2C(N)=O)cc(OC)c1 [Example 2-345, 6-(((3R,4S)-4-amino-1-(methylthio)pentan-3-yl)amino)-2-((3,5-dimethoxyphenyl)amino)-5-fluoronicotinamide]
Cc1ncc(Nc2nc(N[C@H](c3ccc(C(F)(F)F)cc3)[C@H](C)N)c(F)cc2C(N)=O)cc1-n1nccn1 [Example 2-354, 6-(((1R,2S)-2-amino-1-(4-(trifluoromethyl)phenyl)propyl)amino)-5-fluoro-2-((6-methyl-5-(2H-1,2,3-triazol-2-yl)pyridin-3-yl)amino)nicotinamide]
COc1cc(Nc2nc(N[C@H](c3ccccc3)[C@H](C)N)c(F)cc2C(N)=O)cc(OC)n1 [Example 2-356, 6-(((1R,2S)-2-amino-1-phenylpropyl)amino)-2-((2,6-dimethoxypyridin-4-yl)amino)-5-fluoronicotinamide]
COc1ccc([C@@H](Nc2nc(Nc3cc(OC)nc(OC)c3)c(C(N)=O)cc2F)[C@H](C)N)cc1 [Example 2-357, 6-(((1R,2S)-2-amino-1-(4-methoxyphenyl)propyl)amino)-2-((2,6-dimethoxypyridin-4-yl)amino)-5-fluoronicotinamide]
CC[C@H](N)[C@H](Nc1nc(Nc2ccnc(OCCOC)c2)c(C(N)=O)cc1F)C1CC1 [Example 2-360, 6-(((1R,2S)-2-amino-1-cyclopropylbutyl)amino)-5-fluoro-2-((2-(2-methoxyethoxy)pyridin-4-yl)amino)nicotinamide]
CC[C@H](N)[C@H](Nc1nc(Nc2cc(OC)cc(OC)c2)c(C(N)=O)cc1F)C1CC1 [Example 2-361, 6-(((1R,2S)-2-amino-1-cyclopropylbutyl)amino)-2-((3,5-dimethoxyphenyl)amino)-5-fluoronicotinamide]
CCn1ncc2cc(Nc3nc(N[C@@H](CN)Cc4ccccc4)c(F)cc3C(N)=O)ccc21 [Example 2-363, (R)-6-((1-amino-3-phenylpropan-2-yl)amino)-2-((1-ethyl-1H-indazol-5-yl)amino)-5-fluoronicotinamide]
CC[C@H](N)[C@H](Nc1nc(Nc2cnc(C)c(F)c2)c(C(N)=O)cc1F)C1CC1 [Example 2-382, 6-(((1R,2S)-2-amino-1-cyclopropylbutyl)amino)-5-fluoro-2-((5-fluoro-6-methylpyridin-3-yl)amino)nicotinamide]

pIC50, > 8.00:
COc1ncc(Nc2nc(N[C@H](c3ccccc3)[C@H](C)N)c(F)cc2C(N)=O)cc1-n1ccnn1 [Example 2-336, 6-(((1R,2S)-2-amino-1-phenylpropyl)amino)-5-fluoro-2-((6-methoxy-5-(1H-1,2,3-triazol-1-yl)pyridin-3-yl)amino)nicotinamide]
CCn1ncc2cc(Nc3nc(N[C@H](c4ccc(OC)cc4)[C@H](C)N)c(F)cc3C(N)=O)ccc21 [Example 2-341, 6-(((1R,2S)-2-amino-1-(4-methoxyphenyl)propyl)amino)-2-((1-ethyl-1H-indazol-5-yl)amino)-5-fluoronicotinamide]
C[C@H](N)[C@H](Nc1nc(Nc2ccc3c(c2)c(OC(F)F)nn3C)c(C(N)=O)cc1F)C1CCC1 [Example 2-350, 6-(((1R,2S)-2-amino-1-cyclobutylpropyl)amino)-2-((3-(difluoromethoxy)-1-methyl-1H-indazol-5-yl)amino)-5-fluoronicotinamide]
CC[C@H](N)[C@@H](C)Nc1nc(Nc2ccc3c(c2)c(OC(F)F)nn3C)c(C(N)=O)cc1F [Example 2-351, 6-(((2R,3S)-3-aminopentan-2-yl)amino)-2-((3-(difluoromethoxy)-1-methyl-1H-indazol-5-yl)amino)-5-fluoronicotinamide]
CCC[C@@H](Nc1nc(Nc2ccc3c(c2)c(OC(F)F)nn3CCOC)c(C(N)=O)cc1F)[C@H](C)N [Example 2-353, 6-(((2S,3R)-2-aminohexan-3-yl)amino)-2-((3-(difluoromethoxy)-1-(2-methoxyethyl)-1H-indazol-5-yl)amino)-5-fluoronicotinamide]
COc1cc(Nc2nc(N[C@H](c3ccc(C(F)(F)F)cc3)[C@H](C)N)c(F)cc2C(N)=O)cc(OC)n1 [Example 2-355, 6-(((1R,2S)-2-amino-1-(4-(trifluoromethyl)phenyl)propyl)amino)-2-((2,6-dimethoxypyridin-4-yl)amino)-5-fluoronicotinamide]
CCn1ncc2c(Nc3nc(N[C@@H]4CCCC[C@@H]4N)c(F)cc3C(N)=O)cc(F)cc21 [Example 2-369, 6-(((1R,2S)-2-aminocyclohexyl)amino)-2-((1-ethyl-6-fluoro-1H-indazol-4-yl)amino)-5-fluoronicotinamide]
CC[C@@H](Nc1nc(Nc2cc(F)cc3c2cnn3CC)c(C(N)=O)cc1F)[C@H](C)N [Example 2-371, 6-(((2S,3R)-2-aminopentan-3-yl)amino)-2-((1-ethyl-6-fluoro-1H-indazol-4-yl)amino)-5-fluoronicotinamide]
CC[C@H](N)[C@@H](C)Nc1nc(Nc2cc(F)cc3c2cnn3CC)c(C(N)=O)cc1F [Example 2-373, 6-(((2R,3S)-3-aminopentan-2-yl)amino)-2-((1-ethyl-6-fluoro-1H-indazol-4-yl)amino)-5-fluoronicotinamide]
CC[C@H](N)[C@H](Nc1nc(Nc2cc(F)c3c(c2)c(N(C)C)nn3C)c(C(N)=O)cc1F)C1CC1 [Example 2-383, 6-(((1R,2S)-2-amino-1-cyclopropylbutyl)amino)-2-((3-(dimethylamino)-7-fluoro-1-methyl-1H-indazol-5-yl)amino)-5-fluoronicotinamide]

pIC50, 7.00 to 7.30:
COc1ccc([C@@H](Nc2nc(Nc3ccc4ncccc4c3)c(C(N)=O)cc2F)[C@H](C)N)cc1 [Example 2-337, 6-(((1R,2S)-2-amino-1-(4-methoxyphenyl)propyl)amino)-5-fluoro-2-(quinolin-6-ylamino)nicotinamide]
COc1ccc([C@@H](Nc2nc(Nc3cnc(OC)c(-n4ccnn4)c3)c(C(N)=O)cc2F)[C@H](C)N)cc1 [Example 2-339, 6-(((1R,2S)-2-amino-1-(4-methoxyphenyl)propyl)amino)-5-fluoro-2-((6-methoxy-5-(1H-1,2,3-triazol-1-yl)pyridin-3-yl)amino)nicotinamide]
CC[C@H](N)[C@H](Nc1nc(Nc2cnc(N3CCOCC3)c(F)c2)c(C(N)=O)cc1F)C1CC1 [Example 2-359, 6-(((1R,2S)-2-amino-1-cyclopropylbutyl)amino)-5-fluoro-2-((5-fluoro-6-morpholinopyridin-3-yl)amino)nicotinamide]
Cc1ncc(Nc2nc(N[C@@H](CN)Cc3ccccc3)c(F)cc2C(N)=O)cc1-n1nccn1 [Example 2-364, (R)-6-((1-amino-3-phenylpropan-2-yl)amino)-5-fluoro-2-((6-methyl-5-(2H-1,2,3-triazol-2-yl)pyridin-3-yl)amino)nicotinamide]
